Laboratory results reported in patent US10287270B2, “Amino pyrimidine SSAO inhibitors” (ELI LILLY AND COMPANY, priority 2016, dated 2019).
Structures can show the parent of a compound that is named as a salt. Where two headings read alike, the source gives them in different places. Each block holds one molecule with its values, some of them ahead of it.

How the values were obtained:
[1] = target: human recombinant SSAO (hSSAO) (Homo sapiens (Human), UniProt Q16853); assay: SSAO/VAP-1 in vitro activity, MAO-Glo assay, recombinant SSAO; format: biochemical; conditions: substrate 10 μM, mean ± SEM, read-out: hSSAO Inhib Rel IC50
Sequence of human recombinant SSAO (hSSAO) (Q16853 whole entry, canonical isoform): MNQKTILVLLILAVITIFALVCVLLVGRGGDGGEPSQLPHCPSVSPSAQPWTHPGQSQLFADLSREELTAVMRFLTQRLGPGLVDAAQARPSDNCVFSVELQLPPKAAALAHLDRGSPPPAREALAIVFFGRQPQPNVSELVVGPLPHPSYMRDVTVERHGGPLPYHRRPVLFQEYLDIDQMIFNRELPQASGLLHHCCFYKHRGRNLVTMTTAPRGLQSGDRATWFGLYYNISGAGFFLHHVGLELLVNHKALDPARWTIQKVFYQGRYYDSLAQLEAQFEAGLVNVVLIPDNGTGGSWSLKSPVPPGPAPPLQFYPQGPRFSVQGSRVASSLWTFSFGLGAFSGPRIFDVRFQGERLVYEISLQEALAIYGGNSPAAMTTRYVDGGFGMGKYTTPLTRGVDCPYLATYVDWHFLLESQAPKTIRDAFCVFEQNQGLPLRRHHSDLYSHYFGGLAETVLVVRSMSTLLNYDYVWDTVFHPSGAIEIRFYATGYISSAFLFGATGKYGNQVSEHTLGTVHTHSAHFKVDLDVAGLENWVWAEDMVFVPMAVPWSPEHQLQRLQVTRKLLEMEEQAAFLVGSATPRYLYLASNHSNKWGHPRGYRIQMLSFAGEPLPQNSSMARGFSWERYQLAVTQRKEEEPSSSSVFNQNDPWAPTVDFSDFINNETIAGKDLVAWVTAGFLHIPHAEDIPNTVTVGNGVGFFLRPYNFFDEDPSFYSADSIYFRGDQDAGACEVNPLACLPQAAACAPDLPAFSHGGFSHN
Experimental: Amine oxidase activity of recombinant SSAO, MAOa, and MAOb isoforms are measured using the MAO-Glo™ assay kit from Promega (V1402). Test compounds (with DMSO as vehicle, 0.5% v/v for SSAO) and the enzyme are incubated for 10 mins at room temperature before the addition of the luminogenic substrate. The substrate concentration is 10 μM for human recombinant SSAO. The assays are conducted in a pH 7.4 buffer (50 mM HEPES, 120 mM NaCl, 5 mM KCl, 2 mM CaCl2, 1.4 mM MgCl2, 0.001% Tween-20) in a well-plate. Oxidation of the substrate is conducted for 2 hrs before the addition of detecting reagent according the manufacture's protocol. The IC50 value of the tested compounds is calculated by fitting the dose response curve using a 4-parameter non-linear regression routine.

[2] = test system: Male C57BL/6N mice fed 3H diet; assay: Mouse model of NASH and fibrosis induced by 3H diet; format: in vivo; conditions: for Hepatic inflammation Score (0-3) Left / Macrovesicular vaculation Score (0-3) Left / Perisinusoidal fibrosis Score (0-3) Left: left lobe; for Hepatic inflammation Score (0-3) Right / Macrovesicular vaculation Score (0-3) Right / Perisinusoidal fibrosis Score (0-3) Right: right lobe
Experimental: Male C57BL/6N mice are fed with D09100301 diet (Research Diets, 40% fat, 2% cholesterol, 24% fructose, (the, high fat, high cholesterol and high fructose, the “3H diet”) for 150 days. Each mouse is then singly housed after 5 days for an acclimation period. Plasma alanine aminotransferase (ALT) and cytokeratin 18 (CK18) are measured. After one week of recovery, the mice are randomized into 5 groups based on their ALT values, CK18 values, and body weight. […] Blood is collected from mice treated with the compound of Example 6 for 76 days 2 hours after the last dose. Compound levels in the plasma are analyzed by mass spectroscopy. […] At the completion of the study, the animals are sacrificed and their livers excised. Two sections of the left and right lobes are fixed in neutral buffered 10% formalin. Liver tissue slides are stained with hematoxylin and eosin (H&E), Sirius red, and Masson's Trichrome to prepare slides for pathological analysis. All specimens are examined microscopically and scored as a modified Brunt score NASH Activity Score. Scores are based on the grading scheme and end-points as described in Brunt E. M, et al., “Histopathology of nonalcoholic fatty liver disease,” World J. of Gastroenterol, 2010, 16(42), 5286-5296. Group means are then calculated for each individual end-point. The following endpoints are used to characterize the fast food model of NASH in mice as modified from NASH endpoints (See Brunt, E. M. “Histopathology of nonalcoholic fatty liver disease,” Clin Liver Dis., 2009, 13, 533-544 and Brunt, E. M, et al., “Nonalcoholic steatohepatitis: A proposal for grading and staging the histological lesions”, Am J Gastroenterology, 1999, 94(9), 2467-2474.

[3] = Plasma compound levels by mass spectroscopy in 3H diet mice; format: in vivo, mouse; conditions: for concentration at 2 h: male, C57BL/6N, plasma, read-out: Plasma Compound Level
Experimental: Male C57BL/6N mice are fed with D09100301 diet (Research Diets, 40% fat, 2% cholesterol, 24% fructose, (the, high fat, high cholesterol and high fructose, the “3H diet”) for 150 days. Each mouse is then singly housed after 5 days for an acclimation period. Plasma alanine aminotransferase (ALT) and cytokeratin 18 (CK18) are measured. After one week of recovery, the mice are randomized into 5 groups based on their ALT values, CK18 values, and body weight. […] Blood is collected from mice treated with the compound of Example 6 for 76 days 2 hours after the last dose. Compound levels in the plasma are analyzed by mass spectroscopy.

[4] = test system: SSAO activity in rat plasma and liver; assay: SSAO target engagement in rat plasma and liver; format: in vivo; conditions: for SSAO Activity (%) Liver 24 hour / SSAO Activity (%) Plasma 2 hour / SSAO Activity (%) Plasma 24 hour: mean ± SEM, n = 6
Experimental: The SSAO activity in rat plasma and liver tissues are measured using the MAO-Glo™ assay kit from Promega (V1402). The residual SSAO activity in rats after compound treatment is estimated by measuring the total amine oxidase activity in plasma or liver lysates that are insensitive to the presence of the MAO inhibitor Clogyline and Pargyline. Rats are administered the compound of Example 2 at the doses of 15, 3, 0.6, 0.12, 0.025, 0.005 mg/kg. The control group is administered with the same volume (2 ml/kg) of the dosing vehicle (hydroxyethyl cellulose 1% w/v, 0.25% Tween 80). Plasma and liver at 2 or 24 hours post compound treatment are harvested and stored at −78° C. until analysis. Tissue lysates are prepared by homogenization in a lysis buffer (20 mM HEPES, pH 7.4, 150 mM NaCl, 1 mM EDTA, 1 mM EGTA, 1% Triton X-100 and 1× Roche Complete protease inhibitor tablet). Tissue particles are removed by centrifugation at 12,000 rpm at 4° C. for 30 minutes. 40 μl of plasma or liver lysates is incubated with Clogyline (10 μM) and Pargyline (10 μM) for 20 minutes at room temperature before the addition of the luminogenic substrate (50 μM) for 60 minutes. The product generated is quantified according to the manufacture's procedure. The fraction of activity that is insensitive to the presence of the MAO inhibitors is used as the surrogate for the residual SSAO activity. The compound of Example 2 was evaluated in the protocol essentially as described above administered at various doses.

[5] = mouse 3H diet, 0.6 mg/kg once daily, mean ± SEM
[6] = mouse 3H diet, 0.6 mg/kg, mean ± SEM
[7] = mouse 3H diet, 2 mg/kg once daily, mean ± SEM
[8] = mouse 3H diet, 2 mg/kg, mean ± SEM
[9] = mouse 3H diet, 6 mg/kg once daily, mean ± SEM
[10] = mouse 3H diet, 6 mg/kg, mean ± SEM
[11] = mouse 3H diet, 20 mg/kg once daily, mean ± SEM
[12] = mouse 3H diet, 20 mg/kg, mean ± SEM

IC50 [1]: 12 ± 1 nM
Compound: COC1CCN(c2ncc(OC/C(=C/F)CN)cn2)CC1 [Example 3, (E)-3-Fluoro-2-[[2-(4-methoxy-1-piperidyl)pyrimidin-5-yl]oxymethyl]prop-2-en-1-amine, Dihydrochloride]

IC50 [1]: 52 ± 5 nM
concentration at 2 h ([3]; mouse, 2 mg/kg once daily, 76 days, 2 hours after last dose, mean ± SEM): 163 ± 21 ng/mL
concentration at 2 h ([3]; mouse, 6 mg/kg once daily, 76 days, 2 hours after last dose, mean ± SEM): 560 ± 29 ng/mL
concentration at 2 h ([3]; mouse, 20 mg/kg once daily, 76 days, 2 hours after last dose, mean ± SEM): 2120 ± 219 ng/mL
Plasma Compound Level ([3]; mouse, 0.6 mg/kg once daily, 76 days, 2 hours after last dose, mean ± SEM): 66. ± 5 ng/ml
plasma compound levels ([3]; treated mice, all doses): dose-dependent increase
Compound: Cl.Cl.NC/C(=C\F)COc1cnc(N2CC[C@H](O)C2)nc1 [Example 6, (3 S)-1-[5-[(E)-2-(Aminomethyl)-3-fluoro-allyloxy]pyrimidin-2-yl]pyrrolidin-3-ol; Dihydrochloride]
hepatic inflammation ([2]; 20 mg/kg): significant decrease
macrovesicular vaculation ([2]; 20 mg/kg): significant decrease
perisinusoidal fibrosis ([2]; 20 mg/kg): significant decrease
triglyceride levels in blood ([2]; 6 and 20 mg/kg): decreased
ALT ([2]; all groups of treated mice): significant decrease
ALT [2, 5]: 530 ± 45 IU/L
Plasma TG [2, 5]: 55 ± 6 mg/dL
Hepatic inflammation Score (0-3) Left [2, 6]: 2.6 ± 0.1
Macrovesicular vaculation Score (0-3) Left [2, 6]: 2.5 ± 0.1
Perisinusoidal fibrosis Score (0-3) Left [2, 6]: 2.4 ± 0.2
Hepatic inflammation Score (0-3) Right [2, 6]: 2.5 ± 0.1
Macrovesicular vaculation Score (0-3) Right [2, 6]: 2.6 ± 0.1
Perisinusoidal fibrosis Score (0-3) Right [2, 6]: 1.9 ± 0.2
ALT [2, 7]: 483 ± 44 IU/L
Plasma TG [2, 7]: 70 ± 11 mg/dL
Hepatic inflammation Score (0-3) Left [2, 8]: 2.5 ± 0.1
Macrovesicular vaculation Score (0-3) Left [2, 8]: 2.5 ± 0.1
Perisinusoidal fibrosis Score (0-3) Left [2, 8]: 2.5 ± 0.2
Hepatic inflammation Score (0-3) Right [2, 8]: 2.6 ± 0.1
Macrovesicular vaculation Score (0-3) Right [2, 8]: 2.7 ± 0.1
Perisinusoidal fibrosis Score (0-3) Right [2, 8]: 1.8 ± 0.2
ALT [2, 9]: 495 ± 25 IU/L
Plasma TG [2, 9]: 46 ± 4 mg/dL
Hepatic inflammation Score (0-3) Left [2, 10]: 2.5 ± 0.2
Macrovesicular vaculation Score (0-3) Left [2, 10]: 2.9 ± 0.1
Perisinusoidal fibrosis Score (0-3) Left [2, 10]: 2.6 ± 0.2
Hepatic inflammation Score (0-3) Right [2, 10]: 2.6 ± 0.2
Macrovesicular vaculation Score (0-3) Right [2, 10]: 2.7 ± 0.1
Perisinusoidal fibrosis Score (0-3) Right [2, 10]: 2.1 ± 0.3
ALT [2, 11]: 466 ± 37 IU/L
Plasma TG [2, 11]: 45 ± 5 mg/dL
Hepatic inflammation Score (0-3) Left [2, 12]: 2.1 ± 0.1
Macrovesicular vaculation Score (0-3) Left [2, 12]: 2.4 ± 0.2
Perisinusoidal fibrosis Score (0-3) Left [2, 12]: 1.9 ± 0.2
Hepatic inflammation Score (0-3) Right [2, 12]: 2.1 ± 0.1
Macrovesicular vaculation Score (0-3) Right [2, 12]: 2.3 ± 0.1
Perisinusoidal fibrosis Score (0-3) Right [2, 12]: 1.5 ± 0.2

IC50 [1]: 32 ± 7 nM
Compound: CO[C@H]1CCN(c2ncc(OC/C(=C/F)CN)cn2)C1 [Example 5, (E)-3-Fluoro-2-[[2-[(3S)-3-methoxypyrrolidin-1-yl]pyrimidin-5-yl]oxymethyl]prop-2-en-1-amine]

Compound: Cl.Cl.NC/C(=C\F)COc1cnc(N2CCC(O)CC2)nc1 [Example 2, 1-[5-[(E)-2-(Aminomethyl)-3-fluoro-allyloxy]pyrimidin-2-yl]piperidin-4-ol Dihydrochloride]
SSAO Activity (%) Liver 24 hour ([4]; 0.005 mg/kg): 75 ± 18%
SSAO Activity (%) Plasma 2 hour ([4]; 0.005 mg/kg): 31 ± 3%
SSAO Activity (%) Plasma 24 hour ([4]; 0.005 mg/kg): 70 ± 7%
SSAO Activity (%) Liver 24 hour ([4]; 0.025 mg/kg): 68 ± 14%
SSAO Activity (%) Plasma 2 hour ([4]; 0.025 mg/kg): 21 ± 1%
SSAO Activity (%) Plasma 24 hour ([4]; 0.025 mg/kg): 55 ± 9%
SSAO Activity (%) Liver 24 hour ([4]; 0.12 mg/kg): 45 ± 8%
SSAO Activity (%) Plasma 2 hour ([4]; 0.12 mg/kg): 7 ± 1%
SSAO Activity (%) Plasma 24 hour ([4]; 0.12 mg/kg): 35 ± 4%
SSAO Activity (%) Liver 24 hour ([4]; 0.6 mg/kg): 16.2 ± 2.9%
SSAO Activity (%) Plasma 2 hour ([4]; 0.6 mg/kg): 4.3 ± 0.8%
SSAO Activity (%) Plasma 24 hour ([4]; 0.6 mg/kg): 16.3 ± 2.6%
SSAO Activity (%) Liver 24 hour ([4]; 3 mg/kg): 7.1 ± 1.7%
SSAO Activity (%) Plasma 2 hour ([4]; 3 mg/kg): 3.6 ± 1.0%
SSAO Activity (%) Plasma 24 hour ([4]; 3 mg/kg): 8.8 ± 1.3%
SSAO Activity (%) Liver 24 hour ([4]; 15 mg/kg): 9.6 ± 2.6%
SSAO Activity (%) Plasma 2 hour ([4]; 15 mg/kg): −0.6 ± 0.3%
SSAO Activity (%) Plasma 24 hour ([4]; 15 mg/kg): 6.6 ± 1.8%
SSAO activity in rat plasma and liver ([4]; doses 0.005-15 mg/kg): dose-dependently inhibits
